Like-named read-outs stand apart in the source and are kept apart here.
Key:
Assay in all cases: Herbicidal activity for paddy test
Assay type in all cases: in vivo
[1] = test system: SCPJU; conditions: for pest or weed control at 2 g/ha: 0.002 kg/ha; for pest or weed control at 8 g/ha: 0.008 kg/ha; for pest or weed control at 31 g/ha: 0.031 kg/ha; for pest or weed control at 125 g/ha: 0.125 kg/ha; for pest or weed control at 500 g/ha: 0.500 kg/ha
Excerpt: (§1) The sterilized sandy loam soil is filled in test pot having a surface area of 348 cm^2 for upland test conditions or 115 cm^2 for paddy test species were planted in furrows.
(§2) The herbicidal activity data were taken visually by percent control, wherein 0 signifies no herbicidal effect and 100 signifies complete kill.

[2] = test system: SAGPY; conditions: for pest or weed control at 2 g/ha: 0.002 kg/ha; for pest or weed control at 8 g/ha: 0.008 kg/ha; for pest or weed control at 31 g/ha: 0.031 kg/ha; for pest or weed control at 125 g/ha: 0.125 kg/ha; for pest or weed control at 500 g/ha: 0.500 kg/ha
Excerpt: as §1, §2

[3] = test system: ECHOR; conditions: for pest or weed control at 2 g/ha: 0.002 kg/ha; for pest or weed control at 8 g/ha: 0.008 kg/ha; for pest or weed control at 31 g/ha: 0.031 kg/ha; for pest or weed control at 125 g/ha: 0.125 kg/ha; for pest or weed control at 500 g/ha: 0.500 kg/ha
Excerpt: as §1, §2

[4] = test system: ORYSA; conditions: for plant injury at 2 g/ha: 0.002 kg/ha; for plant injury at 8 g/ha: 0.008 kg/ha; for plant injury at 31 g/ha: 0.031 kg/ha; for plant injury at 125 g/ha: 0.125 kg/ha; for plant injury at 500 g/ha: 0.500 kg/ha
Excerpt: as §1, §2

[5] = test system: MOOVA; conditions: for pest or weed control at 2 g/ha: 0.002 kg/ha; for pest or weed control at 8 g/ha: 0.008 kg/ha; for pest or weed control at 31 g/ha: 0.031 kg/ha; for pest or weed control at 125 g/ha: 0.125 kg/ha; for pest or weed control at 500 g/ha: 0.500 kg/ha
Excerpt: as §1, §2

[6] = 3 Leaf, read-out: Herbicidal activity, ORYSA (3 Leaf)
[7] = seed, read-out: Herbicidal activity, ORYSA (seed)

SMILES | pest or weed control at 2 g/ha [1] | pest or weed control at 8 g/ha [1] | pest or weed control at 31 g/ha [1] | pest or weed control at 125 g/ha [1] | pest or weed control at 500 g/ha [1] | pest or weed control at 2 g/ha [2] | pest or weed control at 8 g/ha [2] | pest or weed control at 31 g/ha [2] | pest or weed control at 125 g/ha [2] | pest or weed control at 500 g/ha [2] | pest or weed control at 2 g/ha [3] | pest or weed control at 8 g/ha [3] | pest or weed control at 31 g/ha [3] | pest or weed control at 125 g/ha [3] | pest or weed control at 500 g/ha [3] | plant injury at 2 g/ha [4, 6] | plant injury at 8 g/ha [4, 6] | plant injury at 31 g/ha [4, 6] | plant injury at 125 g/ha [4, 6] | plant injury at 500 g/ha [4, 6] | further results
CCC(=NOC)C1=C(O)CC(c2c(C)c(C)c3c(c2C)CC(C)(CC)C3)CC1=O (stereo not drawn) [Compound 11] | 0% | 0% | 0% | 0% | 0% | 0% | 0% | 0% | 0% | 0% | 0% | 30% | 70% | 100% | 100% | 0% | 0% | 0% | 30% | 80% | plant injury at 2 g/ha [4, 7]: 0%; plant injury at 8 g/ha [4, 7]: 0%; plant injury at 31 g/ha [4, 7]: 30%; plant injury at 125 g/ha [4, 7]: 100%; plant injury at 500 g/ha [4, 7]: 100%; pest or weed control at 2 g/ha [5]: 0%; pest or weed control at 8 g/ha [5]: 0%; pest or weed control at 31 g/ha [5]: 0%; pest or weed control at 125 g/ha [5]: 30%; pest or weed control at 500 g/ha [5]: 50%
C=CCON=C(CC)C1=C(O)CC(c2c(C)c3c(c(C)c2Cl)CC(C)(C)C3)CC1=O (stereo not drawn) [Compound 23] | 0% | 0% | 0% | 0% | 0% | 0% | 0% | 0% | 0% | 0% | 0% | 40% | 100% | 100% | 100% | 0% | 0% | 0% | 0% | 60% | plant injury at 2 g/ha [4, 7]: 0%; plant injury at 8 g/ha [4, 7]: 10%; plant injury at 31 g/ha [4, 7]: 100%; plant injury at 125 g/ha [4, 7]: 100%; plant injury at 500 g/ha [4, 7]: 100%; pest or weed control at 2 g/ha [5]: 0%; pest or weed control at 8 g/ha [5]: 0%; pest or weed control at 31 g/ha [5]: 0%; pest or weed control at 125 g/ha [5]: 0%; pest or weed control at 500 g/ha [5]: 0%
CCC(=NOC)C1=C(O)CC(c2c(C)c(C)c3c(c2Cl)CC(C)(C)C3)CC1=O (stereo not drawn) [Compound 38] | 0% | 0% | 0% | 0% | 0% | 0% | 0% | 0% | 0% | 0% | 0% | 95% | 100% | 100% | 100% | 0% | 0% | 0% | 50% | 100% | plant injury at 2 g/ha [4, 7]: 0%; plant injury at 8 g/ha [4, 7]: 20%; plant injury at 31 g/ha [4, 7]: 100%; plant injury at 125 g/ha [4, 7]: 100%; plant injury at 500 g/ha [4, 7]: 100%; pest or weed control at 2 g/ha [5]: 0%; pest or weed control at 8 g/ha [5]: 0%; pest or weed control at 31 g/ha [5]: 0%; pest or weed control at 125 g/ha [5]: 0%; pest or weed control at 500 g/ha [5]: 0%
CCON=C(CC)C1=C(O)CC(c2c(C)c(C)c3c(c2C)CC(C)(CC)C3)CC1=O (stereo not drawn) [Compound 12] | 0% | 0% | 0% | 0% | 60% | 0% | 0% | 0% | 0% | 30% | 30% | 70% | 100% | 100% | 100% | 0% | 0% | 0% | 0% | 40% | plant injury at 2 g/ha [4, 7]: 0%; plant injury at 8 g/ha [4, 7]: 0%; plant injury at 31 g/ha [4, 7]: 30%; plant injury at 125 g/ha [4, 7]: 100%; plant injury at 500 g/ha [4, 7]: 100%; pest or weed control at 2 g/ha [5]: 0%; pest or weed control at 8 g/ha [5]: 0%; pest or weed control at 31 g/ha [5]: 0%; pest or weed control at 125 g/ha [5]: 0%; pest or weed control at 500 g/ha [5]: 50%
CCCC(=NOCC)C1=C(O)CC(c2c(C)c(C)c3c(c2C)CC(C)(C)C3)CC1=O (stereo not drawn) [Compound 7] | 0% | 0% | 0% | 0% | 0% | 0% | 0% | 0% | 0% | 40% | 95% | 95% | 100% | 100% | 100% | 0% | 0% | 0% | 20% | 65% | plant injury at 2 g/ha [4, 7]: 0%; plant injury at 8 g/ha [4, 7]: 20%; plant injury at 31 g/ha [4, 7]: 100%; plant injury at 125 g/ha [4, 7]: 100%; plant injury at 500 g/ha [4, 7]: 100%; pest or weed control at 2 g/ha [5]: 0%; pest or weed control at 8 g/ha [5]: 0%; pest or weed control at 31 g/ha [5]: 0%; pest or weed control at 125 g/ha [5]: 0%; pest or weed control at 500 g/ha [5]: 0%

Reference: US6096930A, “Herbicidal cyclohexane-1,3-dione derivatives and their preparation process” (Korea Research Institute of Chemical Technology, priority 1994, dated 2000)
